Data set [1] in a line: Cytotoxicity against human HeLa cells assessed as cell viability by CellTiter-Glo luminescent assay. The format is cell-based. Background: In ATP-based viability assays light output follows the ATP content of the culture.
Data set [2] concerns Respiratory syncytial virus. In words: Antiviral activity against Respiratory syncytial virus subgenomic replicon system in 395 HeLa cells assessed as reduction in viral replication after 7 days by renilla luciferase assay. The format is functional, organism-based. Particulars: human respiratory syncytial virus, 168 h.
Data set [3] is described as follows: Inhibition of Respiratory syncytial virus RNA polymerase in crude RSV RNP complex assessed as inhibition of [33P]CMP incorporation into RNA chain.
The target of data set [4] is DNA-directed RNA polymerase, mitochondrial (Homo sapiens) (UniProt O00411). In words: Binding affinity to human mitochondrial RNA polymerase assessed as compound incorporation using [33P]RNA/DNA primer/templates used by […] gel electrophoresis.
Data set [5] has the same target. Description: Inhibition of human mitochondrial RNA polymerase assessed as 13-mer product using [33P]RNA/DNA primer/templates used by […] gel electrophoresis.

Active and inactive are the calls of the source. No cut-off for these calls is given here. A value given as a limit tells only on which side of the number the result lay.

DNA-directed RNA polymerase, mitochondrial (Homo sapiens), sequence (O00411 whole entry): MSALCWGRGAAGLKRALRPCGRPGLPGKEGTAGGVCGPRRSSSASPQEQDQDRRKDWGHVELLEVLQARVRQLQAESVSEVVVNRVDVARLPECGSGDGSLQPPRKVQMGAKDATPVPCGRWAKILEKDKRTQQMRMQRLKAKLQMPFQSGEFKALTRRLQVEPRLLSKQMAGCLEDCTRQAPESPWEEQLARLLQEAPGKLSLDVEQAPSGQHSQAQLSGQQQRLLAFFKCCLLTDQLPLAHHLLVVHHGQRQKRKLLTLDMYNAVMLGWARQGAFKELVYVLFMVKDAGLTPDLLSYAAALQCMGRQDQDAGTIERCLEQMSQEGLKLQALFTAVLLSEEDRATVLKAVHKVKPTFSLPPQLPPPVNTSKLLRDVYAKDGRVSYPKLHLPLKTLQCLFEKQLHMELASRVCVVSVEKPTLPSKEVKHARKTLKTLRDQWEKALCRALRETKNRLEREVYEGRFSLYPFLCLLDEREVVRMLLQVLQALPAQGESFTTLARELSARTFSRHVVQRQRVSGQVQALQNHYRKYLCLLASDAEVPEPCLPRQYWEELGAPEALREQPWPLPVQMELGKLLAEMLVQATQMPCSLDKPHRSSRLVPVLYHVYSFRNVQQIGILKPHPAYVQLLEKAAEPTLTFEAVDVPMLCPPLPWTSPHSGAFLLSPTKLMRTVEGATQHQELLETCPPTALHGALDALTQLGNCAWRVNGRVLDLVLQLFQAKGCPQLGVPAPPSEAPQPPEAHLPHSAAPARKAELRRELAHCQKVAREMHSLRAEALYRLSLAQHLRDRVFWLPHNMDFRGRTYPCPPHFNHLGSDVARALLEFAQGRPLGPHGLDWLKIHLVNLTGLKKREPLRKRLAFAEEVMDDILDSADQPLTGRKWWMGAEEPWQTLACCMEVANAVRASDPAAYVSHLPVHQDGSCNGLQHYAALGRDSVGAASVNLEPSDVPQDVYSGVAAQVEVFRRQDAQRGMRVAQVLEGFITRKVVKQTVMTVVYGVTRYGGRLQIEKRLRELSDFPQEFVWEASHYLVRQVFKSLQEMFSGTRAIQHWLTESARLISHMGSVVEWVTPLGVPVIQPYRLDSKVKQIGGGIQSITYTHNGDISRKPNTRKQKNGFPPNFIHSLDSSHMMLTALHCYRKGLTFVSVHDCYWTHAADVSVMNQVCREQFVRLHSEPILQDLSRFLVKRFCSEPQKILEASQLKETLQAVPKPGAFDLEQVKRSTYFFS

On to `CSC[C@]1(CO)O[C@@H](n2ccc(N)nc2=O)[C@H](F)[C@@H]1O`, for which the CC50 – broadly, the concentration that lowers cell viability or growth by half – in data set [1] was over 63000 nM. Also, the EC50 (as a rule, the concentration giving half of the maximal effect) in data set [2] was 510 nM.
For the compound `Nc1ccn([C@@H]2O[C@@](CO)(CCl)[C@@H](O)C2(F)F)c(=O)n1`, the CC50 in data set [1] was 62000 nM. In addition, the EC50 in data set [2] was 65000 nM.
On to `Nc1ccn([C@@H]2O[C@](CCl)(COP(=O)(O)OP(=O)(O)OP(=O)(O)O)[C@@H](O)[C@H]2O)c(=O)n1`, for which, in data set [3], the IC50 – broadly, the concentration at which inhibition is half-maximal – was found to be 1600 nM.
Consider `Nc1ccn([C@@H]2O[C@@](CO)(CCl)[C@@H](O)[C@H]2O)c(=O)n1`, for which the CC50 in data set [1] was over 100000 nM. Besides, the EC50 in data set [2] is over 100000 nM.
`CO[C@]1(CO)O[C@@H](n2ccc(N)nc2=O)[C@H](F)[C@@H]1O`: the CC50 in data set [1] was over 100000 nM. In data set [2], the EC50 was 12700 nM.
For `CCCCCCCC(=O)OC[C@@]1(CCl)O[C@@H](n2ccc(N)nc2=O)[C@H](F)[C@@H]1OC(=O)CCCCCCC`, in that order: over 66000 nM and 280 nM.
As to `CCCCCCCC(=O)O[C@H]1[C@@H](F)[C@H](n2ccc(N)nc2=O)O[C@@]1(CO)CCl`, the CC50 in data set [1] was over 70000 nM. Also, in data set [2], the EC50 came out at 220 nM.
For `Nc1ccn([C@@H]2O[C@@](CO)(CCl)[C@@H](O)[C@@H]2F)c(=O)n1`, in that order: over 100000 nM and over 100000 nM.
On to `C#C[C@]1(COP(=O)(O)OP(=O)(O)OP(=O)(O)O)O[C@@H](n2ccc(N)nc2=O)[C@H](F)[C@@H]1O`, for which the IC50 in data set [3] came out at 130 nM.
Consider `Nc1ccn([C@@H]2O[C@H](COP(=O)(O)OP(=O)(O)OP(=O)(O)O)[C@@H](O)C2(F)F)c(=O)n1`, for which, in data set [4], the result was Active. Moreover, the inhibition entry in data set [5] is “Active”.
In the case of `Nc1ccn([C@@H]2O[C@@](CO)(CCl)[C@@H](O)[C@@H]2O)c(=O)n1`, the CC50 in data set [1] was over 100000 nM. Further, the EC50 in data set [2] was over 100000 nM.
For `[N-]=[N+]=N[C@]1(CO)O[C@@H](n2ccc(N)nc2=O)[C@H](O)[C@@H]1O` [4'-AZIDOCYTIDINE], the CC50 in data set [1] was over 80000 nM. Also, the EC50 in data set [2] worked out at 670 nM.
As to `Nc1ccn([C@@H]2O[C@@](CO)(C3CC3)[C@@H](O)[C@H]2F)c(=O)n1`, the CC50 in data set [1] is over 100000 nM. The EC50 in data set [2] turned out to be 560 nM.
Take `Nc1ccn([C@@H]2O[C@@](CO)(CBr)[C@@H](O)[C@H]2F)c(=O)n1`: in data set [1], the CC50 was over 100000 nM. The EC50 in data set [2] is 480 nM.
Regarding `C=CC[C@]1(CO)O[C@@H](n2ccc(N)nc2=O)[C@H](F)[C@@H]1O`, in data set [1], the CC50 was over 100000 nM. For the same compound, the EC50 in data set [2] stood at 2640 nM.
The matching figures for `CCC[C@]1(CO)O[C@@H](n2ccc(N)nc2=O)[C@H](F)[C@@H]1O`: over 100000 nM and 2690 nM.
On to `Nc1ccn([C@@H]2O[C@@](COP(=O)(O)OP(=O)(O)OP(=O)(O)O)(C3CC3)[C@@H](O)[C@H]2F)c(=O)n1`, for which, in data set [3], the IC50 amounted to 200 nM.
On the same count and under the same terms, the figure for `Nc1ccn([C@@H]2O[C@](CBr)(COP(=O)(O)OP(=O)(O)OP(=O)(O)O)[C@@H](O)[C@H]2F)c(=O)n1` is 150 nM; for `CCC[C@]1(COP(=O)(O)OP(=O)(O)OP(=O)(O)O)O[C@@H](n2ccc(N)nc2=O)[C@H](F)[C@@H]1O` it is 2000 nM.
For `CC(C)C(=O)OC[C@@]1(CCl)O[C@@H](n2ccc(N)nc2=O)[C@H](F)[C@@H]1O`, in data set [1], the CC50 was over 90000 nM. The EC50 in data set [2] stood at 100 nM.
`CSC[C@]1(COP(=O)(O)OP(=O)(O)OP(=O)(O)O)O[C@@H](n2ccc(N)nc2=O)[C@H](F)[C@@H]1O`: the IC50 in data set [3] worked out at 2700 nM.
With `[N-]=[N+]=N[C@]1(CO)O[C@@H](n2ccc(N)nc2=O)[C@@H](O)[C@@H]1O`, the CC50 in data set [1] is over 100000 nM. Also, the EC50 in data set [2] was found to be 520 nM.
The matching figures for `CCCCC(=O)OC[C@@]1(CCl)O[C@@H](n2ccc(N)nc2=O)[C@H](F)[C@@H]1OC(=O)CCCC`: over 100000 nM and 130 nM.
With `[N-]=[N+]=N[C@]1(COP(=O)(O)OP(=O)(O)OP(=O)(O)O)O[C@@H](n2ccc(N)nc2=O)[C@@H](O)[C@@H]1O`, the IC50 in data set [3] is 200 nM.
On to `[N-]=[N+]=N[C@]1(COP(=O)(O)OP(=O)(O)OP(=O)(O)O)O[C@@H](n2ccc(N)nc2=O)[C@H](O)[C@@H]1O`, for which, in data set [3], the IC50 came out at 240 nM.
Regarding `CCCCCCCC(=O)OC[C@@]1(CCl)O[C@@H](n2ccc(N)nc2=O)[C@H](F)[C@@H]1O`, in data set [1], the CC50 is over 100000 nM. Moreover, in data set [2], the EC50 stood at 30 nM.
As for `CCC(=O)OC[C@@]1(CCl)O[C@@H](n2ccc(N)nc2=O)[C@H](F)[C@@H]1OC(=O)CC`, the CC50 in data set [1] was over 100000 nM. The EC50 in data set [2] stood at 40 nM.
Regarding `C[C@]1(CO)O[C@@H](n2ccc(N)nc2=O)[C@H](F)[C@@H]1O`, the CC50 in data set [1] was over 100000 nM. Also, in data set [2], the EC50 worked out at 2140 nM.
With `CC(C)C(=O)O[C@H]1[C@@H](F)[C@H](n2ccc(N)nc2=O)O[C@@]1(CO)CCl`, in data set [1], the CC50 is over 88000 nM. Also, the EC50 in data set [2] worked out at 160 nM.
Turning to `[N-]=[N+]=N[C@]1(CO)O[C@@H](n2ccc(N)nc2=O)C(F)(F)[C@@H]1O`, the CC50 in data set [1] is over 100000 nM. In addition, in data set [2], the EC50 was 750 nM.
In the case of `CC(C)[C@H](N)C(=O)OC[C@@]1(CCl)O[C@@H](n2ccc(N)nc2=O)[C@H](F)[C@@H]1O`, the CC50 in data set [1] was over 100000 nM. In data set [2], the EC50 stood at 40 nM.
As for `C=C[C@]1(CO)O[C@@H](n2ccc(N)nc2=O)[C@H](F)[C@@H]1O`, the CC50 in data set [1] was over 100000 nM. Besides, in data set [2], the EC50 turned out to be 1910 nM.
As for `C=CC[C@]1(COP(=O)(O)OP(=O)(O)OP(=O)(O)O)O[C@@H](n2ccc(N)nc2=O)[C@H](F)[C@@H]1O`, in data set [3], the IC50 turned out to be 90 nM.
`Nc1ccn([C@@H]2O[C@](CCl)(COP(=O)(O)OP(=O)(O)OP(=O)(O)O)[C@@H](O)[C@@H]2F)c(=O)n1`: the IC50 in data set [3] was 4900 nM.
For `C=C[C@]1(COP(=O)(O)OP(=O)(O)OP(=O)(O)O)O[C@@H](n2ccc(N)nc2=O)[C@H](F)[C@@H]1O`, the IC50 in data set [3] was determined as 90 nM.
As to `C#C[C@]1(CO)O[C@@H](n2ccc(N)nc2=O)[C@H](F)[C@@H]1O`, in data set [1], the CC50 was over 100000 nM. For the same compound, the EC50 in data set [2] was found to be 1120 nM.
With `CCCCCCCCCCCC(=O)O[C@H]1[C@@H](F)[C@H](n2ccc(N)nc2=O)O[C@@]1(CO)CCl`, the CC50 in data set [1] is over 89000 nM. Further, the 50% effective concentration (EC50) in data set [2] was found to be 270 nM.
With `CCCCCC(=O)OC[C@@]1(CCl)O[C@@H](n2ccc(N)nc2=O)[C@H](F)[C@@H]1OC(=O)CCCCC`, the CC50 in data set [1] is over 100000 nM. For the same compound, the EC50 in data set [2] was 220 nM.
As for `Nc1ccn([C@@H]2O[C@H](COP(=O)(O)OP(=O)(O)OP(=O)(O)O)[C@@H](O)[C@@H]2O)c(=O)n1`, the outcome in data set [4] was Active. In addition, the inhibition result in data set [5] was “Active”.
For `CO[C@]1(COP(=O)(O)OP(=O)(O)OP(=O)(O)O)O[C@@H](n2ccc(N)nc2=O)[C@H](F)[C@@H]1O`, the IC50 in data set [3] was found to be 70 nM.
On to `Nc1ccn([C@@H]2O[C@H](COP(=O)(O)OP(=O)(O)OP(=O)(O)O)[C@@H](O)[C@H]2F)c(=O)n1`, for which, in data set [4], the outcome was Active. Further, the inhibition entry in data set [5] is “Active”.
`C[C@]1(COP(=O)(O)OP(=O)(O)OP(=O)(O)O)O[C@@H](n2ccc(N)nc2=O)[C@H](F)[C@@H]1O`: the IC50 in data set [3] was determined as 10 nM.
As to `[N-]=[N+]=N[C@]1(CO)O[C@@H](n2ccc(N)nc2=O)[C@H](F)[C@@H]1O`, the CC50 in data set [1] was over 100000 nM. In addition, the EC50 in data set [2] stood at 190 nM.
`[N-]=[N+]=N[C@]1(COP(=O)(O)OP(=O)(O)OP(=O)(O)O)O[C@@H](n2ccc(N)nc2=O)[C@H](F)[C@@H]1O`: the outcome in data set [4] was Active. Besides, the inhibition entry in data set [5] was “Active”. Further, in data set [3], the IC50 is 100 nM.

The values are drawn from ChEMBL document CHEMBL3414561, “Discovery of 4'-chloromethyl-2'-deoxy-3',5'-di-O-isobutyryl-2'-fluorocytidine (ALS-8176), a first-in-class RSV polymerase inhibitor for treatment of human respiratory syncytial virus infection” (J Med Chem, 2015).
